Data reported in patent US9492554B2, “Methods and compositions related to viral inhibition” (Clemson University Research Foundation (CURF), priority 2009, dated 2016).

Legend:
[1] = system: TAR RNA; assay: UV melting of TAR RNA in presence of ligands (Tm, ΔTm); type: binding, HIV-1; conditions: for ΔTm (° C.): TAR RNA with ligand vs control, Table 10; for Tm (° C.): TAR RNA with ligand, control without ligand 69.3
Method: The reactions were done in the presence of 10 mM sodium cacodylate, 0.5 mM EDTA, 0.1 mM MgCl2 pH 7.0. The heating rate was 0.3° C./min.
UV melting studies of TAR were performed in the presence and absence of various ligands (FIG. 13).

[2] = biological target: HIV-1 TAR RNA; assay: HIV-1 TAR RNA competition FRET binding assay (Tat peptide probe); conditions: 100 nM TAR RNA, 100 nM Tat peptide, 25° C., 60 min; Table 17
Method: Before used, HIV-1 TAR RNA (5′-GGC AGA UCUGAG CCU GGG AGC UCU CUG CC-3′, Thermo Scientific) in 10 μM batch in sterile water was heated to 95° C. for 4.5 min, and then cooled rapidly in ice bath for 5 min. This snap-cooling causes the RNA to adopt the kinetically favored hairpin rather than thermodynamically favored duplexes.
The relative affinity of each polyamine for HIV-1 TAR RNA was determined using Fluorescence Resonance Energy Transfer (FRET)-based competitive binding assay with a fluorescein-labeled HIV-1 Tat peptide as described in the literature. The fluorescence experiments were performed with a Spectra Max Fluorimeter (Molecular Devices) at 25° C., with excitation and emission wavelengths of 495 and 570 nm, respectively. All samples were prepared in 96 well plates in 1×TK buffer (50 mM Tris, 20 mM KCl, pH=7.4) with 0.1% Trixton-100 (Sigma).
To a solution of 100 nM HIV-1 TAR RNA and 100 nM fluorescein-labeled HIV-1 Tat peptide, appropriate concentrations (0 nM to 100 μM) of the antagonists were added at 25° C.; total volume of the incubation solution was 80 μL. After 60 min, fluorescence changes of the sample solution were determined by the Spectra Max Fluorimeter Detector.

[3] = system: cells
[4] = system: HIVNL4-3 in MT-2 cells; assay: HIV antigen synthesis in treated cells, immunofluorescence assay (IFA); type: cell-based; conditions: for percentage of cells positive for HIV antigens, Day 2: MT-2 cells, microM: DPA119 24, DPA52 25, DPA53 9, DPA54 17, DPA55 4, DPA56 8, DPA121 25, virus control 15%; for percentage of cells positive for HIV antigens, Day 4 / percentage of cells positive for HIV antigens, Day 6: same concentrations, virus control 100%
Method: (§1) Anti-HIV activities can be routinely checked by measuring the percentage of cells positive for HIV antigens using immunofluorescence assay (IFA) and for the release of pelletable reverse transcriptase (RT) into the supernatant. For these assays, 500,000 MT-2 cells in 1 ml of media were added to the wells of a 24 well tissue culture plate. Next, 0.5 ml of 4× concentrated compound was added to triplicate wells of the plate. The cells and compounds were incubated for 1 hr at 37 C. Finally, 0.5 ml of HIVNL4-3, produced in H9 cells (a CD4+ lymphoblastoid cell line), 100,000 cpm of RT activity per well, was added to each well. Virus control wells contained no compounds. This inoculum is at a multiplicity of infection less than 1. On days 2, 4, and 6, 0.75 mls of supernatants were removed and placed into individual microfuge tubes for RT assay. Next, cells were resuspended in the media and 0.5 mls of the total remaining volume was removed for IFA. Cells were combined from their triplicate infections, pelleted, and the enriched cells were air-dried onto glass slides. The dried cells were fixed in acetonemethanol (50:50). After fixing, cells were stained with HIV immunoglobulin, washed in PBS, and counter-stained with FITC-conjugated goat and human IgG. Slides were washed in PBS and the percentage of HIV-positive cells was determined by epifluorescence (Robinson et al. J Acquire Immune Defic Syndr 2:33-42, 1989).

[5] = system: HIVNL4-3 in MT-2 cells; assay: Release of reverse transcriptase into the culture supernatant; type: cell-based, HIV; conditions: for Release of reverse transcriptase into the culture supernatant, Day 2: mean of triplicate infections (SD), microM: DPA119 24, DPA52 25, DPA53 9, DPA54 17, DPA55 4, DPA56 8, DPA121 25, virus control 46,029; for Release of reverse transcriptase into the culture supernatant, Day 4 / Release of reverse transcriptase into the culture supernatant, Day 6: mean of triplicate infections; for Release of reverse transcriptase into the culture supernatant, Day 4: virus control 928,112; for Release of reverse transcriptase into the culture supernatant, Day 6: virus control 1,078,741
Source text: as §1, with “The disclosed conjugates also reduce the amount of reverse transcriptase (RT) released into the cell culture supernatant upon in vitro cell culture experiments (Table 14 below). […] It is possible that even though the cells are positive for HIV, they are making much fewer unspliced transcripts, and thus the virion release into the media remains suppressed. […] Anti-HIV” for “Anti-HIV”, “On days 2, 4, and 6, 0.75 mls of supernatants were removed and placed into individual microfuge tubes for RT assay.” left out, “[…] The supernatants from each well were precipitated at 4 C overnight in a solution including 30% polyethylene glycol. After precipitation, precipitate was lysed in a solution containing Triton X100, Tris buffer, and DTT. RT activity of each aliquot was determined as incorporation of 3H-dTTP into a poly rA-oligo dT template. After a one hour assay at 37 C, the incorporated dTTP was precipitated onto a ZetaProbe (BioRad) membrane. Slots were excised and placed into liquid scintillation cocktail. After overnight incubation, counts per minute for each sample was determined on a beta counter. Results were calculated as cpm/ml of original culture supernatant (Robinson et al.” for “J Acquire Immune Defic Syndr 2:33-42, 1989).”

Row | SMILES | ΔTm (° C.) [1] [°C] | Tm (° C.) [1] [°C] | IC50 [2] [µM] | 5% Toxicity microM [3] [µM] | percentage of cells positive for HIV antigens, Day 2 [4] | percentage of cells positive for HIV antigens, Day 4 [4] [%] | percentage of cells positive for HIV antigens, Day 6 [4] [%] | Release of reverse transcriptase into the culture supernatant, Day 2 [5] | Release of reverse transcriptase into the culture supernatant, Day 4 [5] | Release of reverse transcriptase into the culture supernatant, Day 6 [5]
1 | CN1CCN(c2ccc3nc(-c4ccc(OCc5cn(CCn6cc(CCCCc7cn(C[C@H]8OC(OC9C(O)[C@H](N)CC(N)[C@H]9O[C@H]9OC(CN)[C@@H](O)C(O)C9N)C(O)C8O[C@H]8OC(CN)[C@@H](O)C(O)C8N)nn7)nn6)nn5)cc4)[nH]c3c2)CC1 (stereo partly drawn) [DPA113] | 3.1 | 72.4 | 61.3 ± 18.1 | 176 |  |  |  |  |  | 
2 | CN1CCN(c2ccc3nc(-c4ccc(OCc5cn(CCCCCCn6cc(CCCCc7cn(C[C@H]8OC(OC9C(O)[C@H](N)CC(N)[C@H]9O[C@H]9OC(CN)[C@@H](O)C(O)C9N)C(O)C8OC8OC(CN)C(O)C(O)C8N)nn7)nn6)nn5)cc4)[nH]c3c2)CC1 (stereo partly drawn) [DPA114] | 3.8 | 73.1 | 11.6 ± 2.3 | 11 |  |  |  |  |  | 
3 | CN1CCN(c2ccc3nc(-c4ccc(OCc5cn(CCCCCCCCn6cc(CCCCc7cn(C[C@H]8OC(OC9C(O)[C@H](N)CC(N)[C@H]9O[C@H]9OC(CN)[C@@H](O)C(O)C9N)C(O)C8O[C@H]8OC(CN)[C@@H](O)C(O)C8N)nn7)nn6)nn5)cc4)[nH]c3c2)CC1 (stereo partly drawn) [DPA116] | 3.8 | 73.1 | 4.3 ± 0.6 | 83 |  |  |  |  |  | 
4 | CN1CCN(c2ccc3nc(-c4ccc(OCCn5cc(-c6ccc(-c7cn(C[C@H]8OC(OC9C(O)[C@H](N)CC(N)[C@H]9O[C@H]9OC(CN)[C@@H](O)C(O)C9N)C(O)C8O[C@H]8OC(CN)[C@@H](O)C(O)C8N)nn7)cc6)nn5)cc4)[nH]c3c2)CC1 (stereo partly drawn) [DPA118] | 4.8 | 74.1 | 12.1 ± 5.4 | >184 |  |  |  |  |  | 
5 | NCC1O[C@H](OC2C(N)C[C@@H](N)C(O)[C@H]2O[C@@H]2O[C@H](Cn3cc(CCCc4cn(C[C@H]5O[C@@H](O[C@H]6C(O[C@H]7OC(CN)C(O)[C@H](O)C7N)C(N)C[C@@H](N)C6O)[C@@H](O)C5O[C@H]5O[C@@H](CN)C(O)C(O)C5N)nn4)nn3)C(O[C@H]3O[C@@H](CN)C(O)C(O)C3N)[C@@H]2O)C(N)[C@@H](O)C1O (stereo partly drawn) [DPA 52] |  |  |  | >138 | 15% | 100 | 100 | 21,485 (4,574) cpm/ml | 347,845 cpm/ml | 268,357 cpm/ml
6 | NCC1O[C@H](OC2C(N)C[C@@H](N)C(O)[C@H]2O[C@@H]2O[C@H](Cn3cc(-c4ccc(-c5cn(C[C@H]6O[C@@H](O[C@H]7C(O[C@H]8OC(CN)C(O)[C@H](O)C8N)C(N)C[C@@H](N)C7O)[C@@H](O)C6O[C@H]6O[C@@H](CN)C(O)C(O)C6N)nn5)cc4)nn3)C(O[C@H]3O[C@@H](CN)C(O)C(O)C3N)[C@@H]2O)C(N)[C@@H](O)C1O (stereo partly drawn) [DPA 53] |  |  |  | 17 | 2% | 40 | 100 | 8,880 (1,373) cpm/ml | 45,539 cpm/ml | 221,445 cpm/ml
7 | NCC1O[C@H](OC2C(N)C[C@@H](N)C(O)[C@H]2O[C@@H]2O[C@H](Cn3cc(CCCCc4cn(C[C@H]5O[C@@H](O[C@H]6C(O[C@H]7OC(CN)C(O)[C@H](O)C7N)C(N)C[C@@H](N)C6O)[C@@H](O)C5O[C@H]5O[C@@H](CN)C(O)C(O)C5N)nn4)nn3)C(O[C@H]3O[C@@H](CN)C(O)C(O)C3N)[C@@H]2O)C(N)[C@@H](O)C1O (stereo partly drawn) [DPA 54] |  |  |  | 69 | 3-5% | 80 | 100 | 14,805 (1,309) cpm/ml | 165,301 cpm/ml | 427,475 cpm/ml
8 | C/C(CCc1cn(C[C@H]2O[C@@H](O[C@H]3C(O[C@H]4OC(CN)C(O)[C@H](O)C4N)C(N)C[C@@H](N)C3O)[C@@H](O)C2O[C@H]2O[C@@H](CN)C(O)C(O)C2N)nn1)=C(/C)CCc1cn(C[C@H]2O[C@@H](O[C@H]3C(O[C@H]4OC(CN)C(O)[C@H](O)C4N)C(N)C[C@@H](N)C3O)[C@@H](O)C2O[C@H]2O[C@@H](CN)C(O)C(O)C2N)nn1 (stereo partly drawn) [DPA 55] |  |  |  | 8 | 3-5% | 30 | 100 | 20,072 (3,748) cpm/ml | 107,933 cpm/ml | 305,277 cpm/ml
9 | NCC1O[C@H](OC2C(N)C[C@@H](N)C(O)[C@H]2O[C@@H]2O[C@H](Cn3cc(CCCCCCc4cn(C[C@H]5O[C@@H](O[C@H]6C(O[C@H]7OC(CN)C(O)[C@H](O)C7N)C(N)C[C@@H](N)C6O)[C@@H](O)C5O[C@H]5O[C@@H](CN)C(O)C(O)C5N)nn4)nn3)C(O[C@H]3O[C@@H](CN)C(O)C(O)C3N)[C@@H]2O)C(N)[C@@H](O)C1O (stereo partly drawn) [DPA 56] |  |  |  | 34 | 5-7% | 40 | 100 | 15,989 (2,523) cpm/ml | 105,704 cpm/ml | 412,475 cpm/ml
